Measurements reported in patent US4311842A, “Cephalosporin compounds” (Yamanouchi Pharmaceutical Co., Ltd., priority 1978, dated 1982).
≈ marks a conversion by molar mass, not a printed value.

Key:
Assay type in all cases: cell-based
[1] = test system: Bacillus subtilis ATCC 6633; experiment: Antibacterial activity, minimum inhibitory concentration, Bacillus subtilis ATCC 6633; settings: ATCC6633
Excerpt: (§1) The antibacterial activity (the minimum inhibitory concentration) of the compounds of this invention shown by formula I is shown in the following table in comparison to those of known compounds having similar structures, 7-[2-amino-2-(2-aminothiazol-4-yl)acetamido]-3-(1-methyl-tetrazol-5-yl)thiomethyl-Δ^3 -cephem-4-carboxylic acid (Compound A) having the following formula [drawing 8] and 7-[2-amino-2-(2-aminothiazol-4-yl)acetamido]cephalosporanic acid Compound B) having the following formula; [drawing 9]

[2] = test system: Staphylococcus aureus ATCC 6538P; experiment: Antibacterial activity, minimum inhibitory concentration, Staphylococcus aureus ATCC 6538P; settings: ATCC6538P
Excerpt: as §1

[3] = test system: Staphylococcus aureus Oonuma; experiment: Antibacterial activity, minimum inhibitory concentration, Staphylococcus aureus Oonuma; settings: Staphylococcus aureus Oonuma (penicillin, Streptomycin-resistant)
Excerpt: as §1

[4] = test system: Staphylococcus aureus 209P; experiment: Antibacterial activity, minimum inhibitory concentration, Staphylococcus aureus 209P
Excerpt: as §1

Corynebacterium xerosis = experiment: Antibacterial activity, minimum inhibitory concentration, Corynebacterium xerosis
Excerpt: as §1

Vibrio Hy 133 = experiment: Antibacterial activity, minimum inhibitory concentration, Vibrio Hy 133; settings: HY133
Excerpt: as §1

Proteus vulgaris OXK US = experiment: Antibacterial activity, minimum inhibitory concentration, Proteus vulgaris OXK US
Excerpt: as §1

[5] = test system: Pseudomonas aeruginosa NCTC 10490; experiment: Antibacterial activity, minimum inhibitory concentration, Pseudomonas aeruginosa NCTC 10490; settings: NCTC10490
Excerpt: as §1

[6] = test system: Salmonella enteritidis 1891; experiment: Antibacterial activity, minimum inhibitory concentration, Salmonella enteritidis 1891; settings: Salmonella enterica
Excerpt: as §1

[7] = test system: Proteus mirabilis IFM OM-9; experiment: Antibacterial activity, minimum inhibitory concentration, Proteus mirabilis IFM OM-9; settings: IFMOM9
Excerpt: as §1

[8] = test system: Pseudomonas aeruginosa ATCC 8689; experiment: Antibacterial activity, minimum inhibitory concentration, Pseudomonas aeruginosa ATCC 8689; settings: ATCC8689
Excerpt: as §1

[9] = test system: Pseudomonas aeruginosa 99; experiment: Antibacterial activity, minimum inhibitory concentration, Pseudomonas aeruginosa 99; settings: Pseudomonas aeruginosa 99 (Gentamicin-resistant)
Excerpt: as §1

Compound | MIC [1] [µg/mL] | MIC [2] [µg/mL] | MIC [3] [µg/mL] | MIC [4] [µg/mL] | MIC (Corynebacterium xerosis) [µg/mL] | MIC (Vibrio Hy 133) [µg/mL] | MIC (Proteus vulgaris OXK US) [µg/mL] | MIC [5] [µg/mL] | MIC [6] [µg/mL] | MIC [7] [µg/mL] | MIC [8] [µg/mL] | MIC [9] [µg/mL]
CC(=O)OCC1=C(C(=O)O)N2C(=O)C(NC(=O)C(NC(=O)c3cnc(C)cc3O)c3cscn3)C2SC1 (racemic) [Example 1, DL-7-[2-(4-hydroxy-6-methylnicotinamido)-2-(thiazol-4-yl)acetamido]-cephalosporanic acid] | 3.13 (≈ 5.72 µM) | 3.13 (≈ 5.72 µM) | 6.25 (≈ 11.4 µM) | 1.56 (≈ 2.85 µM) | 3.13 (≈ 5.72 µM) | 0.78 (≈ 1.42 µM) | 1.56 (≈ 2.85 µM) | 1.56 (≈ 2.85 µM) | 3.13 (≈ 5.72 µM) | 3.13 (≈ 5.72 µM) | 25 (≈ 45.7 µM) | 25 (≈ 45.7 µM)
CC(=O)OCC1=C(C(=O)O)N2C(=O)C(NC(=O)C(NC(=O)c3cnc(C)cc3O)c3csc(N)n3)C2SC1 (racemic) [Example 2, DL-7-[2-(4-hydroxy-6-methylnicotinamido)-2-(2-aminothiazol-4-yl)acetamido]cephalosporanic acid] | 6.25 (≈ 11.1 µM) | 6.25 (≈ 11.1 µM) | 12.5 (≈ 22.2 µM) | 3.13 (≈ 5.56 µM) | 6.25 (≈ 11.1 µM) | 0.78 (≈ 1.39 µM) | 0.78 (≈ 1.39 µM) | 1.56 (≈ 2.77 µM) | 0.78 (≈ 1.39 µM) | 0.39 (≈ 0.693 µM) | 50 (≈ 88.9 µM) | 25 (≈ 44.4 µM)
CC(=O)OCC1=C(C(=O)O)N2C(=O)C(NC(=O)C(NC(=O)c3csccc3=O)c3csc(N)n3)C2SC1 (racemic) [Example 3, DL-7-[2-(2-aminothiazol-4-yl)-2-(4-oxo-4H-thiopyran-3-carboxamido)-acetamido]cephalosporanic acid] | 3.13 (≈ 5.53 µM) | 3.13 (≈ 5.53 µM) | 6.25 (≈ 11 µM) | 1.56 (≈ 2.76 µM) | 3.13 (≈ 5.53 µM) | 0.78 (≈ 1.38 µM) | 1.56 (≈ 2.76 µM) | 25 (≈ 44.2 µM) | 0.39 (≈ 0.69 µM) | 0.78 (≈ 1.38 µM) | 100 (≈ 177 µM) | 100 (≈ 177 µM)
CC(=O)OCC1=C(C(=O)O)N2C(=O)C(NC(=O)C(NC(=O)c3csccc3=O)c3cscn3)C2SC1 (racemic) [Example 4, DL-7-[2-(4-oxo-4H-thiopyran-3-carboxamido)-2-(thiazol-4-yl)acetamido]cephalosporanic acid] | 1.56 (≈ 2.83 µM) | 1.56 (≈ 2.83 µM) | 6.25 (≈ 11.4 µM) | 1.56 (≈ 2.83 µM) | 1.56 (≈ 2.83 µM) | 0.78 (≈ 1.42 µM) | 3.13 (≈ 5.68 µM) | 6.25 (≈ 11.4 µM) | 6.25 (≈ 11.4 µM) | 6.25 (≈ 11.4 µM) | 100 (≈ 182 µM) | 100 (≈ 182 µM)
Cn1nnnc1SCC1=C(C(=O)O)N2C(=O)C(NC(=O)C(NC(=O)c3csccc3=O)c3cscn3)C2SC1 (racemic) [Example 5, DL-7-[2-(4-oxo-4H-thiopyran-3-carboxamido)-2-(thiazol-4-yl)acetamido]-3-(1-methyltetrazol-5-yl)thiomethyl-Δ^3-cephem-4-carboxylic acid] | 3.13 (≈ 5.16 µM) | 1.56 (≈ 2.57 µM) | 6.25 (≈ 10.3 µM) | 0.78 (≈ 1.29 µM) | 3.13 (≈ 5.16 µM) | 0.39 (≈ 0.643 µM) | 1.56 (≈ 2.57 µM) | 1.56 (≈ 2.57 µM) | 0.78 (≈ 1.29 µM) | 1.56 (≈ 2.57 µM) | 50 (≈ 82.4 µM) | 50 (≈ 82.4 µM)
Cn1nnnc1SCC1=C(C(=O)O)N2C(=O)C(NC(=O)C(NC(=O)c3csccc3=O)c3csc(N)n3)C2SC1 (racemic) [Example 6, DL-7-[2-(2-aminothiazol-4-yl)-2-(4-oxo-4H-thiopyran-3-carboxyamido)acetamido]-3-(1-methyltetrazol-5-yl)thiomethyl-Δ^3-cephem-4-carboxylic acid] | 1.56 (≈ 2.51 µM) | 1.56 (≈ 2.51 µM) | 3.13 (≈ 5.03 µM) | 0.78 (≈ 1.25 µM) | 1.56 (≈ 2.51 µM) | 0.78 (≈ 1.25 µM) | 0.19 (≈ 0.306 µM) | 0.78 (≈ 1.25 µM) | 0.19 (≈ 0.306 µM) | 0.09 (≈ 0.145 µM) | 50 (≈ 80.4 µM) | 50 (≈ 80.4 µM)
Cc1cc(O)c(C(=O)NC(C(=O)NC2C(=O)N3C(C(=O)O)=C(CSc4nnnn4C)CSC23)c2csc(N)n2)cn1 (racemic) [Example 7, DL-7-[2-(2-aminothiazol-4-yl)-2-(4-hydroxy-6-methylnicotinamido)acetamido]-3-(1-methyltetrazol-5-yl)thiomethyl-Δ^3-cephem-4-carboxylic acid] | 3.13 (≈ 5.06 µM) | 1.56 (≈ 2.52 µM) | 6.25 (≈ 10.1 µM) | 1.56 (≈ 2.52 µM) | 6.25 (≈ 10.1 µM) | 0.78 (≈ 1.26 µM) | 0.19 (≈ 0.307 µM) | 0.39 (≈ 0.63 µM) | 0.09 (≈ 0.145 µM) | 0.09 (≈ 0.145 µM) | 25 (≈ 40.4 µM) | 12.5 (≈ 20.2 µM)
Cc1cc(O)c(C(=O)NC(C(=O)NC2C(=O)N3C(C(=O)O)=C(CSc4nnnn4C)CSC23)c2cscn2)cn1 (racemic) [Example 8, DL-7-[2-(4-hydroxy-6-methylnicotinamido)-2-(thiazol-4-yl)-acetamido]-3-(1-methyltetrazol-5-yl)thiomethyl-Δ^3-cephem-4-carboxylic acid] | 3.13 (≈ 5.18 µM) | 1.56 (≈ 2.58 µM) | 6.25 (≈ 10.4 µM) | 1.56 (≈ 2.58 µM) | 3.13 (≈ 5.18 µM) | 0.78 (≈ 1.29 µM) | 1.56 (≈ 2.58 µM) | 0.78 (≈ 1.29 µM) | 0.78 (≈ 1.29 µM) | 1.56 (≈ 2.58 µM) | 25 (≈ 41.4 µM) | 12.5 (≈ 20.7 µM)
Cn1nnnc1SCC1=C(C(=O)O)N2C(=O)C(NC(=O)C(N)c3csc(N)n3)C2SC1 (stereo not drawn) [Compound A, 7-[2-amino-2-(2-aminothiazol-4-yl)acetamido]-3-(1-methyl-tetrazol-5-yl)thiomethyl-Δ^3-cephem-4-carboxylic acid, reference compound] | 12.5 (≈ 25.8 µM) | 25 (≈ 51.7 µM) | 100 (≈ 207 µM) | 12.5 (≈ 25.8 µM) | 25 (≈ 51.7 µM) | 6.25 (≈ 12.9 µM) | 6.25 (≈ 12.9 µM) | 100 (≈ 207 µM) | 0.78 (≈ 1.61 µM) | 1.56 (≈ 3.23 µM) | > 100 | > 100
CC(=O)OCC1=C(C(=O)O)N2C(=O)C(NC(=O)C(N)c3csc(N)n3)C2SC1 (stereo not drawn) [Compound B, 7-[2-amino-2-(2-aminothiazol-4-yl)acetamido]cephalosporanic acid, reference compound] | 1.56 (≈ 3.65 µM) | 3.13 (≈ 7.32 µM) | 12.5 (≈ 29.2 µM) | 3.13 (≈ 7.32 µM) | 3.13 (≈ 7.32 µM) | 1.56 (≈ 3.65 µM) | 3.13 (≈ 7.32 µM) | > 100 | 0.78 (≈ 1.82 µM) | 1.56 (≈ 3.65 µM) | > 100 | > 100
